The results in this text go back to patent US9073954B2, “5-substituted benzimidazolium compounds” (Boehringer Ingelheim International GmbH, priority 2013, dated 2015).

Each structure is given as a SMILES string. Read-outs that look alike come from different tables or passages of the source.

Series [1] has as its target T1, ENaC (Epithelial Sodium Channel) (Mus musculus, UniProt Q61180+Q9WU38+Q9WU39).
T1 construct: Mouse kidney M-1 cells were cultivated in DMEM; endogenous in cells; host or cells: mouse kidney M-1 cells
T1 sequence (Q61180 1-699): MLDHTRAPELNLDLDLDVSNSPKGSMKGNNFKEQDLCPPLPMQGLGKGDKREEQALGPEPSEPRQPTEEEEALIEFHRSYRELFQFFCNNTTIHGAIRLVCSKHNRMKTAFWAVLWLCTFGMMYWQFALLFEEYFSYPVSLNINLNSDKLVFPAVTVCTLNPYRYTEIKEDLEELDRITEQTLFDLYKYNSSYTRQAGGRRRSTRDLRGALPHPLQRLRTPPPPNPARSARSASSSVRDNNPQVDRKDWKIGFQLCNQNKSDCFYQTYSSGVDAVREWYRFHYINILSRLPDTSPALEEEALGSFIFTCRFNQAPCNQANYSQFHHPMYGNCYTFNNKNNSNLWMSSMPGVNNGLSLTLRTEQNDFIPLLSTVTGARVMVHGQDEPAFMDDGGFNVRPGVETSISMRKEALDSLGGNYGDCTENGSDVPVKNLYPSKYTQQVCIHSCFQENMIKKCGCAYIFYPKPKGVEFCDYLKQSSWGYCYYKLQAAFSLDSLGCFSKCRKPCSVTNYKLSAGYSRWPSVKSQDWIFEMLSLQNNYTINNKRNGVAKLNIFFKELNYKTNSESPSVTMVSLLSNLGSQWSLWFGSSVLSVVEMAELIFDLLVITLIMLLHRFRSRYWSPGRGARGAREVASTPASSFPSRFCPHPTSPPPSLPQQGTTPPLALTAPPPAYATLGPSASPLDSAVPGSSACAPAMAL
T1 sequence (Q9WU38 1-638): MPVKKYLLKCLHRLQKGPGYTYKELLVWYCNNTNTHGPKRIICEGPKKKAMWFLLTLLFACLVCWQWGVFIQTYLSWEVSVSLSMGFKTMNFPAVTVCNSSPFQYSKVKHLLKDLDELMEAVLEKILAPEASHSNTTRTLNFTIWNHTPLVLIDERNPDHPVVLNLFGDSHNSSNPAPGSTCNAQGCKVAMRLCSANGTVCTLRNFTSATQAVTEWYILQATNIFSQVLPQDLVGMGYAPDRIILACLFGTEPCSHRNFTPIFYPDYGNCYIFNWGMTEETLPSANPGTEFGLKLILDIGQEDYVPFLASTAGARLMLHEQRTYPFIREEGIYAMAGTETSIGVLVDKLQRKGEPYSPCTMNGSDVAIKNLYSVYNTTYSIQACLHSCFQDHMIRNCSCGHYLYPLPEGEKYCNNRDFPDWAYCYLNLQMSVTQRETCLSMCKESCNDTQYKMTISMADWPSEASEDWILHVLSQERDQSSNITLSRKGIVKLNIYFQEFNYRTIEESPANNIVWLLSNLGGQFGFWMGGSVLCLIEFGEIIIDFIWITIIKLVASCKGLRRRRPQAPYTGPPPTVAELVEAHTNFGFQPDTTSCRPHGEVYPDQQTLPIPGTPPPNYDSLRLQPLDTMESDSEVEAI
T1 sequence (Q9WU39 1-655): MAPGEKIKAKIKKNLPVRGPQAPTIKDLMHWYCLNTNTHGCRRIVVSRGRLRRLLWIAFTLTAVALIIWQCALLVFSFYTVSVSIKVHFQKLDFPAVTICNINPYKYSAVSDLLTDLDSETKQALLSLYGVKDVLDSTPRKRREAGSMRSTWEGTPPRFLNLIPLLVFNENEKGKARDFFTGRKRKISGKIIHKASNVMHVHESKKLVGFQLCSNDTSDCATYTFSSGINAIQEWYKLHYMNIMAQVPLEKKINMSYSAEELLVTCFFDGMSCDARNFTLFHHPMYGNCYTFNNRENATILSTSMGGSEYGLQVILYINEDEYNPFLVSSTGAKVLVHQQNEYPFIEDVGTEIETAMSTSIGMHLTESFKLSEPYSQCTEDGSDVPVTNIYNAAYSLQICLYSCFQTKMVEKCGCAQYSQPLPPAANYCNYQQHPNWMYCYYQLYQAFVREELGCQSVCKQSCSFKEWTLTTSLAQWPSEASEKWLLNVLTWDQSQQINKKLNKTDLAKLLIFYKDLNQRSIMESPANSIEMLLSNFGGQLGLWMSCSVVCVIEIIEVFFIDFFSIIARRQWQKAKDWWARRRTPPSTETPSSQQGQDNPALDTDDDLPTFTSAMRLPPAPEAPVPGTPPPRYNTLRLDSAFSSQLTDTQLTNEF
Nature of the series: Ussing chamber: short circuit current in M-1 cells. It is filed as cell-based. The method, then: Mouse kidney M-1 cells were cultivated in DMEM containing 5% FCS and 5 μM dexamethasone for 10 to 12 days on polyester transwell filters. Filters were inserted into a teflon-coated well-plate which fit into the ussing chamber system. Prior to measurement the medium of M-1 cells was replaced with Caco-2 transport buffer (Invitrogen, Germany). During measurements, the Ussing chamber temperature was kept at 37° C. Short circuit currents (I_sc) were measured in the voltage-clamp mode with the software package Lab View for data acquisition and analysis. The transepithelial electrical resistance (TEER) was determined by the application of voltage steps of ±5 mV every 5 sec. Compounds were administered at a final concentration of 3 μM or at increasing concentrations (1-3-10 μM) to the apical solution. At the end of each experiment the amiloride sensitive I_SC was measured by adding 3 μM amiloride to the apical compartment. Results are expressed as inhibition in percent of the amiloride effect or as IC50.
With the example compounds given above, the following IC50 values were determined in the Ussing Chamber assay: […]

Series [2] can be described thus: Permeability in CALU-3 cells. It is filed as in vitro ADME. As to conditions: human, CALU-3 monolayers, 10 μM compound, pH 7.4, 37° C.; for Papp A→B at 90 min, 10 μM: apical-to-basal; for Papp B→A at 90 min, 10 μM: basal-to-apical. On the procedure:
Permeability in CALU-3 Cells:
Permeability measurements across polarized, confluent CALU-3 cell monolayers grown on permeable filter supports are used to provide information on the potential of a compound to pass the lung epithelium. Apparent permeability coefficients (Papp) of the compounds across the CALU-3 cell monolayers are measured (pH 7.4, 37° C.) in apical-to-basal (AB) and basal-toapical (BA) transport direction.
CALU-3 cells (1-2×10^5 cells/1 cm^2 area) are seeded on filter inserts (Costar transwell polycarbonate filters, 0.4 μm pore size) and cultured (for 10-12 days DMEM) until tight monolayers are formed. Compounds of interest are dissolved in appropriate solvent (DMSO, 10 mM stock solution). Stock solutions are diluted with HTP-4 buffer (128.13 mM NaCl, 5.36 mM KC, 1 mM MgSO4, 1.8 mM CaCl2, 4.17 mM NaHCO3, 1.19 mM Na2HPO4×7H2O, 0.41 mM NaH2PO4xH2O, 15 mM HEPES, 20 mM glucose, 0.25% BSA, pH 7.4) to prepare the transport solutions (10 μM compound, final DMSO<=0.5%). The transport solution (TL) is applied to the apical or basolateral donor side for measuring A-B or B-A permeability (3 filter replicates), respectively. The receiver side contains the same buffer as the donor side. After 30 min of accommodation, samples are collected at the start t0=0 min and at the end of the experiment tn=90 min from the donor and at 0, 30, 60, and 90 min also from the receiver chamber. Volume removed is replenished by HTP-4 buffer. The compound concentration in the samples is measured by HPLC-MS/MS or scintillation counting. The permeability coefficient (Papp) and efflux ratio are calculated according to: Papp [cm/s]=(concentration receiver [nM]*volume receiver [mL]/time interval [sec])*(1/filter area)*(1/donor concentration [nM])
With example compounds given above, the following permeability values were determined in the CALU-3 cells assay: […]

[3] abbreviates: Ussing chamber, mouse kidney M-1 cells, amiloride sensitive I_SC, apical application, 37° C., read-out: IC50.

A word on the IC50: it is the concentration at which inhibition is half-maximal. In general, Papp A→B refers to the apparent permeability from the apical to the basolateral side of a cell layer. A low value points to poor permeation. One may read the Papp B→A as how fast a substance crosses the layer from the basolateral side.

Consider `CCOP(=O)([O-])CCCOc1ccc2c(c1)n(CC)c(CNC(=O)c1nc(Cl)c(N)nc1N)[n+]2CCOC` [Example 1.1], for which, in series [1] (setting [3]), the IC50 stood at 11 nM. In series [2], this compound gave a Papp A→B at 90 min, 10 μM of 0.1 ×10⁻⁶ cm/s and a Papp B→A at 90 min, 10 μM of 0.03 ×10⁻⁶ cm/s.
`CCn1c(CNC(=O)c2nc(Cl)c(N)nc2N)[n+](CC)c2ccc(CNC(=O)OCC3c4ccccc4-c4ccccc43)cc21` [Example 1.2]: in series [1] (setting [3]), the IC50 is 9 nM.
Take `CCn1c(CNC(=O)c2nc(Cl)c(N)nc2N)[n+](CC)c2cc(Cl)c(N(CCO)CCO)cc21` [Example 1.3]: the IC50 in series [1] (setting [3]) stood at 2 nM.
Take `CCn1c(CNC(=O)c2nc(Cl)c(N)nc2N)[n+](CC)c2ccc(OCCNC(=O)OC(C)(C)C)cc21` [Example 1.4]: the IC50 in series [1] (setting [3]) is 0.4 nM.
With `CCn1c(CNC(=O)c2nc(Cl)c(N)nc2N)[n+](CC)c2cc(Cl)c(O[C@H]3CO[C@H]4[C@@H]3OC[C@@H]4O)cc21` [Example 1.5], the IC50 in series [1] (setting [3]) is 1 nM. In series [2], this compound came in with a Papp A→B at 90 min, 10 μM of 0.3 ×10⁻⁶ cm/s and a Papp B→A at 90 min, 10 μM of 0.1 ×10⁻⁶ cm/s.
Consider `CCn1c(CNC(=O)c2nc(Cl)c(N)nc2N)[n+](C[C@H](C)O)c2cc(OCCN)ccc21` [Example 1.7], for which the IC50 in series [1] (setting [3]) was 2 nM. In series [2], the Papp A→B at 90 min, 10 μM worked out at 0.03 ×10⁻⁶ cm/s and the Papp B→A at 90 min, 10 μM amounted to 0.05 ×10⁻⁶ cm/s.
`CCOP(=O)(CCCOc1ccc2c(c1)n(CC)c(CNC(=O)c1nc(Cl)c(N)nc1N)[n+]2CC)OCC` [Example 3.1]: the IC50 in series [1] (setting [3]) was found to be 3 nM.
Same read-out and setting: the result for `CCn1c(CNC(=O)c2nc(Cl)c(N)nc2N)[n+](CC)c2cc(Cl)c(OCCOCCOC)cc21` [Example 3.2] reads 0.5 nM.
`CCn1c(CNC(=O)c2nc(Cl)c(N)nc2N)[n+](CC)c2ccc(O[C@H](C)C(=O)N3CCNC(=O)C3)cc21` [Example 3.3]: the IC50 in series [1] (setting [3]) turned out to be 1 nM.
For `CCNC(=O)COc1ccc2c(c1)n(C(C)C)c(CNC(=O)c1nc(Cl)c(N)nc1N)[n+]2CC` [Example 3.4], in series [1] (setting [3]), the IC50 was determined as 1 nM.
On the same count and under the same terms, under `CCNC(=O)[C@H](C)Oc1ccc2c(c1)n(CC)c(CNC(=O)c1nc(Cl)c(N)nc1N)[n+]2CC` [Example 3.6] stands 1 nM.
In series [2], `CC[n+]1c(CNC(=O)c2nc(Cl)c(N)nc2N)n(CCCCCO)c2cc(O)ccc21` [Example 3.7] had a Papp A→B at 90 min, 10 μM of 0.7 ×10⁻⁶ cm/s and a Papp B→A at 90 min, 10 μM of 0.3 ×10⁻⁶ cm/s.
For `CCn1c(CNC(=O)c2nc(Cl)c(N)nc2N)[n+](C)c2ccc(O)cc21` [Example 3.9], in series [1] (setting [3]), the IC50 was 1 nM.
Still for that read-out and setting: the result for `CCn1c(CNC(=O)c2nc(Cl)c(N)nc2N)[n+](CC)c2ccc(O)cc21` [Example 3.10] reads 0.2 nM.
As for `CCOP(=O)(CCCOc1ccc2c(c1)n(CC)c(CNC(=O)c1nc(Cl)c(N)nc1N)[n+]2CCOC)OCC` [Example 3.13], in series [1], inhibition was half-maximal at 2 nM (IC50).
In the case of `CCNC(=O)COc1ccc2c(c1)n(CC)c(CNC(=O)c1nc(Cl)c(N)nc1N)[n+]2CC` [Example 3.14], in series [1] (setting [3]), the half-inhibitory concentration (IC50) worked out at 0.3 nM.
On to `CCn1c(CNC(=O)c2nc(Cl)c(N)nc2N)[n+](CC)c2ccc(O[C@@H]3CO[C@H]4[C@@H]3OC[C@H]4O)cc21` [Example 3.15], for which the IC50 in series [1] (setting [3]) came to 3 nM.
Regarding `CCn1c(CNC(=O)c2nc(Cl)c(N)nc2N)[n+](CC)c2ccc(OCCCP(=O)([O-])O)cc21` [Example 4.1], the IC50 in series [1] (setting [3]) is 11 nM.
On to `CCn1c(CNC(=O)c2nc(Cl)c(N)nc2N)[n+](CC)c2ccc(OCCNCC(=O)[O-])cc21` [Example 5.1], for which the IC50 in series [1] (setting [3]) is 5 nM.
On to `CCn1c(CNC(=O)c2nc(Cl)c(N)nc2N)[n+](CC)c2ccc(CN)cc21` [Example 6.1], for which the IC50 in series [1] (setting [3]) is 1 nM.
Turning to `CCn1c(CNC(=O)c2nc(Cl)c(N)nc2N)[n+](CC)c2ccc(OCCN)cc21` [Example 6.2], the IC50 in series [1] (setting [3]) was 1 nM.
Still for that read-out and setting: the result for `CCNC(=O)c1cc2c(cc1OCC(=O)N1CCNCC1)n(CC)c(CNC(=O)c1nc(Cl)c(N)nc1N)[n+]2CC` [Example 6.3] reads 4 nM; that for `CCn1c(CNC(=O)c2nc(Cl)c(N)nc2N)[n+](CC)c2ccc(OCCNC(=O)C[N+](C)(C)C)cc21` [Example 8.1], 0.4 nM; that for `CCn1c(CNC(=O)c2nc(Cl)c(N)nc2N)[n+](CC)c2ccc(CNC(=O)C[N+](C)(C)C)cc21` [Example 8.2], 5 nM.
As for `CCn1c(CNC(=O)c2nc(Cl)c(N)nc2N)[n+](CC)c2ccc(C[N+](C)(C)C)cc21` [Example 8.3], in series [1] (setting [3]), the IC50 was found to be 2 nM.
For the compound `CCn1c(CNC(=O)c2nc(Cl)c(N)nc2N)[n+](CC)c2ccc(OCCNCC(=O)OC)cc21` [Example 9.1], the IC50 in series [1] (setting [3]) was 2 nM.
The same measure, in the same setting: the result for `CCn1c(CNC(=O)c2nc(Cl)c(N)nc2N)[n+](CC)c2ccc(OCCNC(=N)N)cc21` [Example 10.1] reads 0.3 nM; that for `CCn1c(CNC(=O)c2nc(Cl)c(N)nc2N)[n+](CC)c2ccc(CNC(=O)COc3cc(C(=O)N[C@H]4CC[C@H](N(C)C)CC4)cc(C(=O)N[C@H]4CC[C@H](N(C)C)CC4)c3)cc21` [Example 11.1], 2 nM.
